Measured values taken from article PMC9305425 (Chemmedchem, 2022).
Where “and” joins values, the source holds several entries; their conditions need not be identical. Equal entries are not always repeated. Where two headings read alike, the source gives them in different places.

Legend:
oxidized EcDsbA [1] = molecular target: T1, oxidized EcDsbA (Escherichia coli, UniProt P0AEG4); experiment: biochemical
Method: ITC was performed using a MicroCal iTC200 instrument (GE Healthcare). […] Titrations were conducted at 25 °C using 15 consecutive injections of 2.5 μL with 180 s intervals and a stirring speed of 700 rpm. […] Every interaction was tested in triplicate and the values given represent mean and standard error of mean (SEM) from these triplicate analyses.
Isothermal Titration Calorimetry (ITC).
EcDsbA (A)/VcDsbA (B). Each experiment was conducted in triplicate; a single replicate
representative of the acquired ITC data is shown.
(1 picture or pasted object on this page, not shown here)

[2] = 2D [1H,1H]-NOESY; for solubility / aggregation in aqueous buffer: 298 K
Method: Solubility test of benzimidazole 2 in aqueous buffer. 2D [1H,1H]-NOESY of
benzimidazole 2 at 4 mM in D2O NMR buffer (50 mM NaPi, 25 mM NaCl, pH 6.5; 2% D6-

VcDsbA [3] = details: cited from earlier work
EcDsbA = details: cited from earlier work
VcDsbA [4] = details: cited from earlier work; remark: listed apart in the source
oxidized EcDsbA [5] = molecular target: T1, oxidized EcDsbA; experiment: biochemical; assay type: binding; design: made in house; host or cells: E. coli BL21(DE3)
oxidized VcDsbA = molecular target: T2, oxidized VcDsbA (Vibrio cholerae serotype O1, UniProt P32557); experiment: biochemical; assay type: binding; details: for Kd: 1H-15N HSQC titration, one-site binding model, 100 μM 15N-labeled oxidized VcDsbA, 298 K, read-out: equilibrium dissociation constant (KD); for extent of chemical shift perturbations (CSP) in 1H-15N HSQC of VcDsbA: single-point addition of compound (1 mM) to VcDsbA (100 μM), compared with other hits / analogues
T2 construct: made in house; host or cells: E. coli BL21(DE3)
T2 sequence (P32557 20-200): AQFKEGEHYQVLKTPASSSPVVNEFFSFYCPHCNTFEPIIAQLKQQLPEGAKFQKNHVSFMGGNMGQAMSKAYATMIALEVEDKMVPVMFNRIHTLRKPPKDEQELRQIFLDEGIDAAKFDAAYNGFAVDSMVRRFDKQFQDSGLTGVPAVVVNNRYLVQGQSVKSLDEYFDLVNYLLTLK

[6] = molecular target: T3, unlabelled oxidized VcDsbA (Vibrio cholerae serotype O1, UniProt P32557); experiment: Ligand-detected 1D 19F NMR affinity estimation; assay type: binding; details: change in 19F chemical shift at two protein:ligand ratios, VcDsbA 10 μM
T3 construct: made in house; host or cells: E. coli BL21(DE3)
T3 sequence (P32557 20-200): as above
Description: Residues with a CSP >0.05 ppm at the highest ligand concentration tested were mapped onto the VcDsbA structure (Figure 2C, D). The residues showing the largest CSP were localized within the hydrophobic groove, adjacent to the active site (Figure 2D). […] The K D for the VcDsbA‐benzimidazole 2 interaction was also estimated using ligand‐detected 1D ^19F‐NMR (Figure 2F). The ^19F chemical shift of the CF3 group in benzimidazole 2 has a chemical shift of −60.38 ppm in the absence of protein and was perturbed upon in a concentration‐dependent fashion upon addition of VcDsbA. The change in the chemical shift of the ^19F signal at two different protein : ligand ratios was used to estimate the K D of the interaction.[20]
Affinity estimation from ligand‐detected ^19F NMR. The change in the resonance frequency of the single ^19F signal in the 1D ^19F NMR spectrum of benzimidazole 2 was used to estimate the binding affinity using equation 2.[43] (2) KD=γL1-L2/1-γ
where γ is described as ΔδF1/ΔδF2 and ΔδF1 and ΔδF2 denote the changes in chemical shift of the fluorine signal of benzimidazole 2 in the absence of VcDsbA and in presence of VcDsbA (10.0 μM) at ligand concentrations of [L]1 and [L]2, respectively.

T1 sequence (P0AEG4 20-208): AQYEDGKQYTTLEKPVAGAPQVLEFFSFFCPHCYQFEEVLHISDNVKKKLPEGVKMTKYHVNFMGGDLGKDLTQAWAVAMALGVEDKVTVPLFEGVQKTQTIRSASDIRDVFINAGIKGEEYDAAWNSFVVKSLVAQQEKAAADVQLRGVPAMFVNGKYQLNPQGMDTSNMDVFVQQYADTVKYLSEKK

C[C@H](CCC(=O)NCCS(=O)(=O)O)[C@H]1CC[C@H]2[C@@H]3[C@H](O)C[C@@H]4C[C@H](O)CC[C@]4(C)[C@H]3C[C@H](O)[C@]12C [TC, sodium taurocholate]
N (stoichiometry) (oxidized EcDsbA [1]): 1
ΔH (oxidized EcDsbA [1]): -6.551 ± 0.273 kcal/mol
ΔS (oxidized EcDsbA [1]): -6.11 cal/mol/deg
Kd (oxidized EcDsbA [1]; KD): 428 ± 44 µM
Kd (oxidized EcDsbA [1]; association constant K): 340 µM
solubility / aggregation in aqueous buffer ([2]; [TC]set = 4 mM in D2O NMR buffer): no aggregation
Kd (VcDsbA [3]): 40 ± 2.5 µM
Kd (EcDsbA): 146 ± 7 µM
VcDsbA substrate oxidation in vivo (VcDsbA [4]): inhibit VcDsbA substrate oxidation in vivo
redox state of VcDsbA (VcDsbA [4]): able to affect the redox state of VcDsbA
effect on the oxidation state of DsbA (oxidized EcDsbA [5]): no effect on the oxidation state
Kd (oxidized EcDsbA [5]; KD): 224 µM and ~224 µM

OCCCc1nc2ccc(C(F)(F)F)cc2[nH]1 [benzimidazole 1]
Kd (oxidized VcDsbA): 610 ± 150 µM
extent of chemical shift perturbations (CSP) in 1H-15N HSQC of VcDsbA (oxidized VcDsbA): largest chemical shift perturbations

OCCCc1nc2c(Cl)cc(C(F)(F)F)cc2[nH]1 [benzimidazole 2]
Kd (oxidized VcDsbA): 446 ± 10 µM
selectivity for VcDsbA over EcDsbA (oxidized VcDsbA; ratio of HSQC-derived KD values, VcDsbA over EcDsbA): ~8 fold
extent of chemical shift perturbations (CSP) in 1H-15N HSQC of VcDsbA (oxidized VcDsbA): largest CSP
Kd [6]: 480 µM
solubility / aggregation in aqueous buffer ([2]; 4 mM in D2O NMR buffer (50 mM NaPi, 25 mM NaCl, pH 6.5; 2% D6-DMSO; 98% D2O)): no aggregation
solubility / aggregation in aqueous NMR buffer ([2]; mixing time 800 ms, concentration of 2.5 mM): soluble and free from aggregation
Kd (oxidized EcDsbA [5]): > 3500 µM
